Source: PMC10574185, “Encapsulation and Biological Activity of Hesperetin Derivatives with HP-β-CD” (Molecules, 2023)
Values after ≈ are worked out from the molar mass of the structure shown. Values joined by “and” are separate entries in the source; they are usually repeats but may differ in a detail not shown here. Equal values may be shown once. Read-outs that look alike come from different tables or passages of the source.

Legend:
HaCaT cells = experiment: MTT cytotoxicity assay on HaCaT keratinocytes; assay type: cell-based, human; settings: for IC50: Homo sapiens
Protocol: HaCaT keratinocyte cells were exposed to chemical compounds at nine different concentrations (from 3.9 to 995.6 µg/mL) in four replicates of each concentration for 24 and 48 h.
All compounds were dissolved in sterile DMSO (Merck Life Science, Warsaw, Poland) and were sterile-filtered with 0.22 µm pore size sterile disposable syringe filters.
HaCaT cell line (the normal immortalised human keratinocytes) used in the study derived from the 35th passage (the original material created by Prof. Dr. Petra Boukamp and Dr. Norbert Fusenig) was purchased from Cell Line Service GmbH (Eppelheim, Germany). The cells were cultured and propagated as described previously.
The cytotoxicity was assessed with MTT assay according to methodology applied previously.
The following final concentrations (in four replicates per experiment) of the test compounds were tested (µg/mL): 3.9; 7.8; 15.6; 31.1; 62.2; 124.5; 248.9; 497.8, and 995.6. […] Three independent experiments were conducted. The vehicle was cells in the culture medium. The assay was conducted for 24 h and 48 h.

[1] = system: Listeria monocytogenes ATCC 19111; experiment: Antagonistic activity, diffusion-well method; assay type: cell-based; settings: ATCC19111, compounds at 2.5 µM, wells 8 mm, 37 °C, 18 h
Protocol: (§1) The antimicrobial activity of the HESP, ligands ([…], and HTSC), and complexes with HP-β-CD were tested against Gram-positive bacteria (Listeria monocytogenes ATCC 19111, Listeria monocytogenes ATCC 19112, Listeria monocytogenes ATCC 19115, Staphylococcus aureus ATCC 29737, Staphylococcus aureus ATCC 25923, Staphylococcus aureus ATCC 27734) and Gram-negative bacteria (Escherichia coli ATCC 11303, Escherichia coli ATCC 35218, Salmonella Typhimurium, ATCC 14028, Salmonella Enteritidis ATCC 13076, Salmonella Choleraesuis ATCC 7001). The strains were activated from cryobanks by passaging them twice onto a Nutrient Broth (Merck, Darmstadt, Germany). All bacteria were grown for 24 h at 37 °C. Antagonistic activity of the following chemical compounds: […], and […] determined by the diffusion-well method. The test strains were plated on Mueller-Hinton Agar (Merck, Darmstadt, Germany) in the form of a surface layer of bacteria according to the procedures recommended by the European Committee on Antimicrobial Susceptibility Testing EUCAST [74]. The detailed methodology was described in the paper by Sykuła et al.. Bacterial inoculum was prepared from an overnight solid culture. The inoculum density was 1-2 × 10^8 CFU/mL, which corresponds to a McFarland standard of 0.5. The samples of the test compounds were dissolved in 5% (w/w) DMSO to obtain a concentration of 500 μM, and were sterilized using filtration (filter pore width 0.2 μm; (Sartorius AG, Gottingen, Germany). The bacteria inoculum test culture (0.1 mL) smear conducted was on sterile Mueller-Hinton Agar (Merck, Darmstadt, Germany) plates. […] A total of 50 μL of the prepared solutions of the tested compounds at a concentration of 500 μM were added to the wells. The plates prepared in this way were incubated at 37 °C for 18 h. After this time, zones of growth inhibition were read and the result was given in mm. The experiment was carried out in two independent repetitions. The results were expressed in average values and standard deviation. The results were analyzed using a one-way ANOVA and post-hoc Tukey's test.

[2] = system: Listeria monocytogenes ATCC 19112; experiment: Antagonistic activity, diffusion-well method; assay type: cell-based; settings: ATCC19112, compounds at 2.5 µM, wells 8 mm, 37 °C, 18 h
Protocol: as §1

[3] = system: Listeria monocytogenes ATCC 19115; experiment: Antagonistic activity, diffusion-well method; assay type: cell-based; settings: ATCC19115, compounds at 2.5 µM, wells 8 mm, 37 °C, 18 h
Protocol: as §1

[4] = system: Salmonella Choleraesuis ATCC 7001; experiment: Antagonistic activity, diffusion-well method; assay type: cell-based; settings: Salmonella enterica, compounds at 2.5 µM, wells 8 mm, 37 °C, 18 h
Protocol: as §1

[5] = system: Salmonella Enteritidis ATCC 13076; experiment: Antagonistic activity, diffusion-well method; assay type: cell-based; settings: Salmonella enterica, compounds at 2.5 µM, wells 8 mm, 37 °C, 18 h
Protocol: as §1

[6] = system: Salmonella Typhimurium ATCC 14028; experiment: Antagonistic activity, diffusion-well method; assay type: cell-based; settings: Salmonella enterica, compounds at 2.5 µM, wells 8 mm, 37 °C, 18 h
Protocol: as §1

[7] = system: Staphylococcus aureus ATCC 27734; experiment: Antagonistic activity, diffusion-well method; assay type: cell-based; settings: ATCC27734, compounds at 2.5 µM, wells 8 mm, 37 °C, 18 h
Protocol: as §1

[8] = system: Staphylococcus aureus ATCC 29737; experiment: Minimal inhibition concentration (dilution + diffusion-well); assay type: cell-based; settings: ATCC29737, 37 °C, 18 h
Procedure, shortened: (§2)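 Agar diffusion-well format on Mueller–Hinton agar, 8 mm wells loaded with two-fold compound dilutions prepared from 500 to 62.5 µM in 5% DMSO. Plates incubated 18 h at 37 °C; MIC taken as first concentration showing growth inhibition.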

[9] = system: Escherichia coli ATCC 11303; experiment: as above; assay type: cell-based; settings: ATCC11303, 37 °C, 18 h
Procedure, shortened: as §2

Staphylococcus aureus = system: Staphylococcus aureus; set-up: method as in PMID 36009336; settings: cited from earlier work
Bacillus cereus = system: Bacillus cereus; set-up: method as in PMID 36009336; settings: cited from earlier work
Escherichia coli = system: Escherichia coli; set-up: method as in PMID 36009336; settings: cited from earlier work
Pseudomonas aeruginosa = system: Pseudomonas aeruginosa; set-up: method as in PMID 36009336; settings: cited from earlier work
prostate cancer cells = settings: cited from earlier work
[10] = pH 6.5; cited from earlier work
[11] = system: Escherichia coli ATCC 35218; experiment: Minimal inhibition concentration (dilution + diffusion-well); assay type: cell-based; settings: ATCC35218, 37 °C, 18 h
Procedure, shortened: as §2

[12] = MTT, 48 h exposure, read-out: IC50 After 48 h
[13] = MTT, 24 h exposure, read-out: IC50 After 24 h

Compound | Non-cytotoxic concentration (IC0) (HaCaT cells; 48 h exposure) | IC50 (HaCaT cells; [12]) | zone of inhibition at 2.5 µM [1] | zone of inhibition at 2.5 µM [2] | zone of inhibition at 2.5 µM [3] | zone of inhibition at 2.5 µM [4] | zone of inhibition at 2.5 µM [5] | zone of inhibition at 2.5 µM [6] | zone of inhibition at 2.5 µM [7] | IC50 (HaCaT cells; [13]) | MIC [9] | other results
COc1ccc(C2CC(=NNC(N)=S)c3c(O)cc(O)cc3O2)cc1O (stereo not shown) [HTSC, N-[2,3-dihydro-5,7-dihydroxy-2-(3-hydroxy-4-methoxyphenyl)chromen-4-ylidene]thiosemicarbazide] | ≤ 3.9 µg/mL | 11.9 µg/mL (≈ 31.7 µM) | 0 mm | 0 mm | 0 mm | 0 mm | 0 mm | 0 mm | 0 mm | – | – | MIC [8]: 2.5 µM
COc1ccc(C2C/C(=N\NC(=O)c3ccncc3)c3c(O)cc(O)cc3O2)cc1O (racemic) [HIN] | ≤ 15.6 µg/mL | 59.7 µg/mL (≈ 142 µM) | 0 mm | 0 mm | 0 mm | 0 mm | 0 mm | 0 mm | 0 mm | 350 µg/mL (≈ 831 µM) | 2.5 µM | Non-cytotoxic concentration (IC0) (HaCaT cells; 24 h exposure): ≤ 7.8 µg/mL
COc1ccc(C2CC(=O)c3c(O)cc(O)cc3O2)cc1O (stereo not shown) [Hesperetin, 3′,5,7-Trihydroxy-4′-methoxyflavanone] | ≤ 3.9 µg/mL | 150 µg/mL (≈ 496 µM) | 0 mm | 0 mm | 0 mm | 0 mm | 0 mm | 0 mm | 0 mm | 221 µg/mL (≈ 731 µM) | 2.5 µM | MIC (Staphylococcus aureus): 125 µg/mL (≈ 414 µM); MIC (Bacillus cereus): 250 µg/mL (≈ 827 µM); MIC (Escherichia coli): 500 µg/mL (≈ 1650 µM); MIC (Pseudomonas aeruginosa): 500 µg/mL (≈ 1650 µM); decrease in the cytotoxicity of cabazitaxel (prostate cancer cells): 13.1 fold; decrease in the cytotoxicity of docetaxel (prostate cancer cells): 9.8 fold; increase of hesperetin solubility with HP-β-CD [10]: 164 times
COc1ccc(C2C/C(=N\NC(=O)c3ccccc3)c3c(O)cc(O)cc3O2)cc1O (racemic) [HHSB] | – | – | 0 mm | 0 mm | 0 mm | 0 mm | 0 mm | 0 mm | 0 mm | 418 µg/mL (≈ 993 µM) | – | cytotoxicity at the lowest concentration tested (HaCaT cells; 48 h, 3.9 µg/mL): 54.8% ± 5.4; cytotoxicity at the highest concentration tested (HaCaT cells; 48 h, 995.6 µg/mL): 79.1% ± 6.6; IC70 after 48 h (HaCaT cells; MTT, 48 h exposure, IC50 impossible to count): 163.5 µg/mL and 163.5 ^b µg/mL; MIC [11]: 2.5 µM
